Data taken from paper PMC7542481, “Synthesis of Amino Acid Schiff Base Nickel (II) Complexes as Potential Anticancer Drugs In Vitro” (Bioinorganic Chemistry and Applications, 2020).

Columns and labels:
breast cancer MCF-7 = experiment: MTT cytotoxicity assay, MCF-7; type: cell-based, human; details: treatment 48 h
Protocol: (§1) 3-(4,5-Dimethylthiazol-2-yl)-2, 5-diphenyltetrazolium bromide (MTT) method was used to assay the cytotoxicity in vitro. Complexes 1–3, ligands (L1, L2, and L3), Ni (CH3COO)2, and cisplatin were dissolved in DMSO at the concentration of 20 mM as a stock solution for subsequent testing. Four different cancer cell lines (MCF-7, SGC-7901, Eca-109, and HepG2) and one normal cell line (HSF) were seeded in 96-well and cultured at 37 °C in 5% CO2. After 24 h, the medium was replaced by different concentrations of complex and incubated for 48 h. 10 μL MTT dye (5 mg/mL) was added to each well and incubated for another 4 h. After that, the medium was removed and DMSO (100 μL) was added to solubilize the MTT formazan. A microplate reader (Bio-Rad iMark™) was used to measure the OD value of each well at a wavelength of 490 nm. Each experiment was repeated at least three times, and GraphPad Prism 5.0 was used to analyze the IC50 values.

gastric cancer SGC-7901 = experiment: MTT cytotoxicity assay, SGC-7901; type: cell-based, human; details: treatment 48 h
Protocol: as §1

[1] = system: hepatocellular carcinoma HepG2; experiment: MTT cytotoxicity assay, HepG2; type: cell-based, human; details: treatment 48 h
Protocol: as §1

[2] = system: esophageal cancer Eca-109; experiment: MTT cytotoxicity assay, Eca-109; type: cell-based, human; details: treatment 48 h
Protocol: as §1

normal human cells HSF = experiment: MTT cytotoxicity assay, HSF; type: cell-based; details: treatment 48 h
Protocol: as §1

Eca-109 cells [3] = experiment: Annexin V-PE/7-AAD staining apoptosis assay by flow cytometry (with or without NAC or 3-MA pretreatment); type: cell-based, human; details: for percentage of apoptotic cells: 24 h, control 7.30%
Protocol: N-acetyl-L-cysteine (NAC), as a ROS scavenger, was added in a medium for 1 h before the addition of complex 2 to examine the effect of ROS on cell viability. The percentage of apoptotic cells was detected by Annexin V-PE/7-AAD staining assay after complex 2 treatment with or without NAC.
Different stages of apoptosis induced by complex 2 were determined by Annexin V-PE and 7-AAD staining according to the manufacture's protocol for the Annexin V Apoptosis Detection Kit (BD, Bioscience). Eca-109 cells were seeded in a 6-well plate with a density of 2 × 10^5 cells per well and cultured at 37°C in 5% CO2 for 24 h. Then, different concentrations of complex 2 were added into the above well and incubated for another 24 h. The cells were resuspended in binding buffer, stained with 5 μL Annexin V-PE and 5 μL 7-AAD at room temperature for 15 min, and analyzed using the flow cytometer (BD FACS Aria III).
3-MA, as an autophagic inhibitor, was added in a medium for 1 h before the addition of complex 2 to examine the effect of autophagy on cell viability. The percentage of apoptotic cells was detected by Annexin V-PE/7-AAD staining assay after complex 2 treatment with or without 3-MA.

Eca-109 cells [4] = experiment: Intracellular ROS level, DCFH-DA probe; type: cell-based, human; details: Eca-109, 20 μM and 40 μM, 24 h
Protocol: Eca-109 cells were seeded into a 6-well plate at a density of 2 × 10^5 cells per well and incubated for 24 h. Then, the medium was replaced and incubated with different concentrations of complex 2 for another 24 h. After that, cells were washed twice with ice-cold PBS, stained with 10 μM DCFH-DA for 30 minutes, and photographed by fluorescence microscopy (Nikon Eclipse Ti–E, Nikon Instruments Inc., Japan).

Eca-109 cells [5] = experiment: Cell cycle arrest assay, PI staining, flow cytometry; type: cell-based, human; details: for percentage of cells in S phase / percentage in the cell at the G2/M phase / percentage in the cell at the G0/G1 phase: 24 h; for percentage in the cell at the G2/M phase: control 6.35%; for percentage in the cell at the G0/G1 phase: control 63.82%
Protocol: After treatment with different concentrations of complex 2, the cells were collected and fixed with 70% ethanol for the night. Then, the cells were incubated in 500 μL PBS containing Triton X-100 (0.1% v/v), RNase A (0.2 mg/mL), and propidium iodide (PI, 0.02 mg/mL) for 15 min. Then, the cells were analyzed by flow cytometry (BD FACS Aria III).

Bax = experiment: Western blot assay, Bax; type: cell-based, human; details: Eca-109, 24 h, concentration-dependent
Protocol: (§2) After incubation with different concentrations of complex 2, cells were harvested in a radioimmunoprecipitation assay (RIPA) buffer with protease inhibitors and phosphatase inhibitors. BCA Protein Assay Kit was used to determine the protein concentration. Then, the expression levels of proteins associated with Bcl-2 family and autophagy were measured by Western blot assay.

p62 = experiment: Western blot assay, p62; type: cell-based, human; details: Eca-109, 24 h, concentration-dependent
Protocol: as §2

Eca-109 cells [6] = experiment: Autophagy assay, MDC staining; type: cell-based, human; details: Eca-109, 20 μM and 40 μM, 24 h, compared to the control group
Protocol: Eca-109 cells were seeded in 6-well plates and incubated at 37 °C in 5% CO2 for 24 h. Then, the medium was replaced with different concentrations of complex 2 for another 24 h. After that, the medium was removed and the cells were washed twice with ice-cold PBS. Then, the cells were stained with MDC (monodansylcadaverine) solution (50 μM) for 15 min, and the data were obtained by flow cytometry (BD FACS Aria III).

Beclin-1 = experiment: Western blot assay, Beclin-1; type: cell-based, human; details: Eca-109, 24 h, concentration-dependent
Protocol: as §2

Eca-109 cells [7] = experiment: Hoechst 33342 staining, fluorescence microscopy; type: cell-based, human; details: Eca-109, 20 μM and 40 μM, 24 h
Protocol: With the density of 2 × 10^5 cells per well, Eca-109 cells were cultured in a 6-well plate for 24 h. After that, the medium was replaced by different concentrations of complex 2 and incubated for another 24 h. Then, cells were washed twice with ice-cold PBS, stained with 10 μg/mL Hoechst 33342 for 15 minutes, and photographed by fluorescence microscopy (Nikon Eclipse Ti–E, Nikon Instruments Inc., Japan).

Eca-109 cells [8] = experiment: AO/EB double staining, fluorescence microscopy; type: cell-based, human; details: Eca-109, 20 μM and 40 μM, 24 h
Protocol: AO/EB double staining was used to observe the changes in apoptotic cells. Eca-109 cells were cultured in a 6-well plate for 24 h. Then, cells were treated with different concentrations of complex 2 for another 24 h. After that, cells were washed twice with ice-cold PBS, stained with 100 μg/mL AO/EB for 10 minutes, and photographed by fluorescence microscopy (Nikon Eclipse Ti–E, Nikon Instruments Inc., Japan).

Bcl-2 = experiment: Western blot assay, Bcl-2; type: cell-based, human; details: Eca-109, 24 h, concentration-dependent
Protocol: as §2

Eca-109 cells [9] = experiment: Mitochondrial membrane potential by JC-1 staining, flow cytometry; type: cell-based, human; details: 24 h, control 4.69%
Protocol: After being treated with different concentrations of complex 2, the cells were collected and incubated in 500 μL PBS containing 10 μg/mL JC-1 for 20 min at 37°C in the dark. Then, the cells were resuspended in PBS and analyzed by flow cytometry (BD FACS Aria III).

Bad = experiment: Western blot assay, Bad; type: cell-based, human; details: Eca-109, 24 h, concentration-dependent
Protocol: as §2

LC3B-II = experiment: Western blot assay, LC3B-II; type: cell-based, human; details: Eca-109, 24 h, concentration-dependent
Protocol: as §2

Bcl-xL = experiment: Western blot assay, Bcl-xL; type: cell-based, human; details: Eca-109, 24 h, concentration-dependent
Protocol: as §2

O=C(O)[C@@H](Cc1c[nH]c2ccccc12)N=Cc1c(O)ccc2ccccc12 [Complex L3]
IC50 (breast cancer MCF-7): > 80 µM | IC50 (gastric cancer SGC-7901): 42.7 ± 1.13 µM | IC50 [1]: > 80 µM | IC50 [2]: 48.4 ± 4.99 µM

CC(=O)[O-].CC(=O)[O-].[Ni+2] [Ni (CH3COO)2, reference compound]
IC50 (breast cancer MCF-7): > 80 µM | IC50 (gastric cancer SGC-7901): 41.4 ± 0.87 µM | IC50 [1]: > 80 µM | IC50 [2]: 43.5 ± 1.34 µM

O=C1[O][Ni][O]c2ccccc2C=N[C@@H]1Cc1c[nH]c2ccccc12.c1cnc2c(c1)ccc1cccnc12 [Complex 1, [Ni (Trp-sal) (phen) (CH3OH)]]
IC50 (normal human cells HSF): 60.9 ± 1.76 µM | IC50 (breast cancer MCF-7): 75.75 ± 0.41 µM | IC50 (gastric cancer SGC-7901): 34 ± 2.5 µM | IC50 [1]: > 80 µM | IC50 [2]: 23.9 ± 2.54 µM

O=C(O)C(Cc1c[nH]c2ccccc12)N=Cc1ccccc1O (stereo not drawn) [Complex L1]
IC50 (breast cancer MCF-7): > 80 µM | IC50 (gastric cancer SGC-7901): > 80 µM | IC50 [1]: > 80 µM | IC50 [2]: > 80 µM

N.N.[Cl][Pt][Cl] [Cisplatin, reference compound]
IC50 (normal human cells HSF): 17.1 ± 1.31 µM | IC50 (breast cancer MCF-7): 12.3 ± 0.75 µM | IC50 (gastric cancer SGC-7901): 11.7 ± 1.45 µM | IC50 [1]: 13.9 ± 0.58 µM | IC50 [2]: 11.9 ± 0.19 µM

Cn1cnc(N)c2ncnc1-2 [Complex 3-MA, 3-methyladenine, reference compound]
toxicity toward cells (Eca-109 cells [3]; Eca-109, 3-MA alone): nontoxicity

COc1cccc(C=N[C@H](Cc2c[nH]c3ccccc23)C(=O)O)c1O [Complex L2]
IC50 (breast cancer MCF-7): > 80 µM | IC50 (gastric cancer SGC-7901): > 80 µM | IC50 [1]: > 80 µM | IC50 [2]: > 80 µM

CO.CO.CO.COc1cccc(C=N[C@H](Cc2c[nH]c3ccccc23)C(=O)[O-])c1[O-].[Ni+2].c1cnc2c(c1)ccc1cccnc12 [Complex 2, [Ni (Trp-o-van) (phen) (CH3OH)]•2CH3OH]
intracellular ROS level (DCF fluorescence) (Eca-109 cells [4]): increase the intracellular ROS level in a dosage-dependent manner | IC50 (normal human cells HSF): 23.9 ± 0.74 µM | cell cycle arrest (in words) (Eca-109 cells [5]; Eca-109): cell cycle arrest in the G2/M phase | percentage of cells in S phase (Eca-109 cells [5]; Eca-109, 20 μM): 33.27% | percentage in the cell at the G2/M phase (Eca-109 cells [5]; Eca-109, 20 μM): 7.21% | percentage in the cell at the G0/G1 phase (Eca-109 cells [5]; Eca-109, 20 μM): 59.51% | percentage of cells in S phase (Eca-109 cells [5]; Eca-109, 40 μM): 31.32% | percentage in the cell at the G2/M phase (Eca-109 cells [5]; Eca-109, 40 μM): 19.84% | percentage in the cell at the G0/G1 phase (Eca-109 cells [5]; Eca-109, 40 μM): 48.84% | IC50 (breast cancer MCF-7): 16.1 ± 1.32 µM | IC50 (gastric cancer SGC-7901): 15.7 ± 1.46 µM | expression level of Bax (Bax): significantly increased | percentage of apoptotic cells (Eca-109 cells [3]; Eca-109, 20 μM): 8.78% | percentage of apoptotic cells (Eca-109 cells [3]; Eca-109, 40 μM): 29.40% | percentage of apoptosis cells with NAC pretreatment versus without (Eca-109 cells [3]; Eca-109, 24 h, NAC added 1 h before): reduced | expression level of p62 (p62): decreased | IC50 [1]: 47.29 ± 0.35 µM | MDC staining intensity (autophagy level) (Eca-109 cells [6]): increased significantly | expression level of Beclin-1 (Beclin-1): increased | apoptotic characteristics, Hoechst 33342 staining (Eca-109 cells [7]): apoptotic characteristics were also observed | morphological changes, AO/EB staining (Eca-109 cells [8]): nuclear shrinkage, chromatin condensation, and late apoptotic cells containing red apoptotic bodies | expression level of Bcl-2 (Bcl-2): significantly decreased | green fluorescence of the JC-1 monomers (loss of MMP) (Eca-109 cells [9]; Eca-109, 20 μM): 6.86% | green fluorescence of the JC-1 monomers (loss of MMP) (Eca-109 cells [9]; Eca-109, 40 μM): 49.5% | expression level of Bad (Bad): significantly increased | expression level of LC3B-II (LC3B-II): increased | IC50 [2]: 18.1 ± 2.39 µM | expression level of Bcl-xL (Bcl-xL): significantly decreased

O=C([O-])[C@@H](Cc1c[nH]c2ccccc12)N=Cc1c([O-])ccc2ccccc12.[Ni+2].c1cnc2c(c1)ccc1cccnc12 [Complex 3, [Ni (Trp-naph) (phen) (CH3OH)]]
IC50 (normal human cells HSF): 32.5 ± 1.98 µM | IC50 (breast cancer MCF-7): 23.7 ± 0.55 µM | IC50 (gastric cancer SGC-7901): 24.3 ± 0.95 µM | IC50 [1]: 28.1 ± 1.34 µM | IC50 [2]: 21.9 ± 3.19 µM
